# Results published in PubChem BioAssay (NCI).
#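 Step 1: Grow cells in 96-well plates. Step 2: Expose to compound for 48 hours at 5 concentrations. Step 3: Interpolate endpoints linearly; if unreached, use highest concentration. TGI: concentration producing complete growth inhibition.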
# Experiments:
# Assay in all cases: NCI tumour cell line growth inhibition, 48 h
# [1] = tested on: 786-0 renal
# [2] = tested on: A498 renal
# [3] = tested on: A549 NSCLC
# [4] = tested on: ACHN renal
# [5] = tested on: CCRF-CEM leukemia
# [6] = tested on: COLO 205 colon
# [7] = tested on: DU-145 prostate
# [8] = tested on: EKVX NSCLC
# [9] = tested on: HCC-2998 colon
# [10] = tested on: HCT-116 colon
# [11] = tested on: HCT-15 colon
# [12] = tested on: HL-60(TB) leukemia
# [13] = tested on: HOP-62 NSCLC
# [14] = tested on: HOP-92 NSCLC
# [15] = tested on: HS 578T breast
# [16] = tested on: HT29 colon
# [17] = tested on: IGROV1 ovarian
# [18] = tested on: KM12 colon
# [19] = tested on: M14 melanoma
# [20] = tested on: MALME-3M melanoma
# [21] = tested on: MCF7 breast
# [22] = tested on: MDA-MB-231 breast
# [23] = tested on: MDA-MB-435
# [24] = tested on: MOLT-4 leukemia
# [25] = tested on: NCI-H226 lung
# [26] = tested on: NCI-H23 lung
# [27] = tested on: NCI-H460 lung
# [28] = tested on: NCI/ADR-RES ovarian
# [29] = tested on: OVCAR-4 ovarian
# [30] = tested on: OVCAR-5 ovarian
# [31] = tested on: OVCAR-8 ovarian
# [32] = tested on: RPMI-8226 leukemia
# [33] = tested on: RXF 393 renal
# [34] = tested on: SF-268 CNS
# [35] = tested on: SF-295 CNS
# [36] = tested on: SF-539 CNS
# [37] = tested on: SK-MEL-28 melanoma
# [38] = tested on: SK-MEL-5 melanoma
# [39] = tested on: SK-OV-3 ovarian
# [40] = tested on: SN12C renal
# [41] = tested on: SNB-19 CNS
# [42] = tested on: SNB-75 CNS
# [43] = tested on: SR leukemia
# [44] = tested on: SW-620 colon
# [45] = tested on: T-47D breast
# [46] = tested on: TK-10 renal
# [47] = tested on: U251 CNS
# [48] = tested on: UACC-257 melanoma
# [49] = tested on: UACC-62 melanoma
# [50] = tested on: UO-31 renal
# [51] = tested on: BT-549 breast
# [52] = tested on: CAKI-1 renal
# [53] = tested on: K-562 leukemia
# [54] = tested on: LOX IMVI melanoma
# [55] = tested on: NCI-H522 lung
# [56] = tested on: OVCAR-3 ovarian
# [57] = tested on: PC-3 prostate
# [58] = tested on: SK-MEL-2 melanoma
smiles,measurement,setting,value
Cc1cc(NC2=NCCO2)c2c(c1C)CCCC2,TGI,[1],43 µM
same,TGI,[2],49.8 µM
same,TGI,[3],> 100 µM
same,TGI,[4],> 100 µM
same,TGI,[5],> 100 µM
same,TGI,[6],46.6 µM
same,TGI,[7],> 100 µM
same,TGI,[8],> 100 µM
same,TGI,[9],29 µM
same,TGI,[10],> 100 µM
same,TGI,[11],49.6 µM
same,TGI,[12],33.2 µM
same,TGI,[13],32 µM
same,TGI,[14],13.6 µM
same,TGI,[15],> 100 µM
same,TGI,[16],49.7 µM
same,TGI,[17],> 100 µM
same,TGI,[18],33.5 µM
same,TGI,[19],28.1 µM
same,TGI,[20],25.9 µM
same,TGI,[21],31 µM
same,TGI,[22],77.9 µM
same,TGI,[23],39.5 µM
same,TGI,[24],95.3 µM
same,TGI,[25],12.4 µM
same,TGI,[26],> 100 µM
same,TGI,[27],63 µM
same,TGI,[28],73.1 µM
same,TGI,[29],> 100 µM
same,TGI,[30],57.1 µM
same,TGI,[31],> 100 µM
same,TGI,[32],45.3 µM
same,TGI,[33],> 100 µM
same,TGI,[34],54.7 µM
same,TGI,[35],31.8 µM
same,TGI,[36],22.6 µM
same,TGI,[37],40.7 µM
same,TGI,[38],31.5 µM
same,TGI,[39],> 100 µM
same,TGI,[40],66.3 µM
same,TGI,[41],38.8 µM
same,TGI,[42],67.5 µM
same,TGI,[43],75.9 µM
same,TGI,[44],> 100 µM
same,TGI,[45],76.5 µM
same,TGI,[46],> 100 µM
same,TGI,[47],63.1 µM
same,TGI,[48],39.1 µM
same,TGI,[49],41.1 µM
same,TGI,[50],30.7 µM
NCCCCNCCCN,TGI,[1],> 100 µM
same,TGI,[2],> 100 µM
same,TGI,[3],> 100 µM
same,TGI,[4],> 100 µM
same,TGI,[51],> 100 µM
same,TGI,[52],3.1 µM
same,TGI,[6],> 100 µM
same,TGI,[7],> 100 µM
same,TGI,[8],> 100 µM
same,TGI,[9],> 100 µM
same,TGI,[10],> 100 µM
same,TGI,[11],> 100 µM
same,TGI,[12],> 100 µM
same,TGI,[13],> 100 µM
same,TGI,[14],> 100 µM
same,TGI,[16],> 100 µM
same,TGI,[17],> 100 µM
same,TGI,[53],> 100 µM
same,TGI,[18],> 100 µM
same,TGI,[54],> 100 µM
same,TGI,[19],> 100 µM
same,TGI,[20],> 100 µM
same,TGI,[21],> 100 µM
same,TGI,[22],> 100 µM
same,TGI,[23],> 100 µM
same,TGI,[24],> 100 µM
same,TGI,[25],> 100 µM
same,TGI,[26],> 100 µM
same,TGI,[27],> 100 µM
same,TGI,[55],> 100 µM
same,TGI,[28],> 100 µM
same,TGI,[56],> 100 µM
same,TGI,[29],37.6 µM
same,TGI,[30],> 100 µM
same,TGI,[31],> 100 µM
same,TGI,[57],> 100 µM
same,TGI,[33],> 100 µM
same,TGI,[34],> 100 µM
same,TGI,[35],> 100 µM
same,TGI,[36],> 100 µM
same,TGI,[58],> 100 µM
same,TGI,[37],> 100 µM
same,TGI,[38],> 100 µM
same,TGI,[39],> 100 µM
same,TGI,[41],> 100 µM
same,TGI,[42],> 100 µM
same,TGI,[43],> 100 µM
same,TGI,[44],> 100 µM
same,TGI,[45],> 100 µM
same,TGI,[46],> 100 µM
same,TGI,[47],> 100 µM
same,TGI,[48],> 100 µM
same,TGI,[49],> 100 µM
same,TGI,[50],> 100 µM
